We go through 22 compounds from ChEMBL document CHEMBL3232846, “Synthesis and discovery of highly functionalized mono- and bis-spiro-pyrrolidines as potent cholinesterase enzyme inhibitors” (Bioorg Med Chem Lett, 2014).

Each structure is given as a SMILES string.

One assay deals with Acetylcholinesterase (Electrophorus electricus, UniProt O42275). In words: Inhibition of electric eel AChE using acetylthiocholine iodide as substrate preincubated for 15 mins by spectrophotometer analysis.
The nature of assay [1]: Selectivity ratio of IC50 for electric eel AChE to IC50 for equine serum BChE.
A further assay addresses Cholinesterase (Equus caballus, UniProt P81908). Put plainly: Inhibition of equine serum BChE using S-butyrylthiocholine chloride as substrate preincubated for 15 mins by spectrophotometer analysis.
Assay [2] in a line: Selectivity ratio of IC50 for equine serum BChE to IC50 for electric eel AChE.

Cholinesterase, sequence (P81908 whole entry): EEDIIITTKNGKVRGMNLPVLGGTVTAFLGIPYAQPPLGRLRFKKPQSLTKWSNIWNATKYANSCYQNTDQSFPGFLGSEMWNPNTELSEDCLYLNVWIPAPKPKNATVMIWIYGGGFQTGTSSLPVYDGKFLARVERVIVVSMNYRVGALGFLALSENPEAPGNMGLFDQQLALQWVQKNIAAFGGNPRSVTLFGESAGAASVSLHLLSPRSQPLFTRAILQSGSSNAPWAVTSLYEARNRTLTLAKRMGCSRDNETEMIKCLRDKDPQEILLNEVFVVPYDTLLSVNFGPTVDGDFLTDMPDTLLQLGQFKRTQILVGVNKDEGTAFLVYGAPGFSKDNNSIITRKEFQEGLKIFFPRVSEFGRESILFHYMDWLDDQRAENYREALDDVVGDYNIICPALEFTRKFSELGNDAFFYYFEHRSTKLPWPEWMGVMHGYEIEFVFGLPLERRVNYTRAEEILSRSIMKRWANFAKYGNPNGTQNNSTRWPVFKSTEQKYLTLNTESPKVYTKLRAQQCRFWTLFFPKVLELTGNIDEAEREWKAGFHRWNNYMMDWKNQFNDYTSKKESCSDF
Acetylcholinesterase, sequence (O42275 whole entry): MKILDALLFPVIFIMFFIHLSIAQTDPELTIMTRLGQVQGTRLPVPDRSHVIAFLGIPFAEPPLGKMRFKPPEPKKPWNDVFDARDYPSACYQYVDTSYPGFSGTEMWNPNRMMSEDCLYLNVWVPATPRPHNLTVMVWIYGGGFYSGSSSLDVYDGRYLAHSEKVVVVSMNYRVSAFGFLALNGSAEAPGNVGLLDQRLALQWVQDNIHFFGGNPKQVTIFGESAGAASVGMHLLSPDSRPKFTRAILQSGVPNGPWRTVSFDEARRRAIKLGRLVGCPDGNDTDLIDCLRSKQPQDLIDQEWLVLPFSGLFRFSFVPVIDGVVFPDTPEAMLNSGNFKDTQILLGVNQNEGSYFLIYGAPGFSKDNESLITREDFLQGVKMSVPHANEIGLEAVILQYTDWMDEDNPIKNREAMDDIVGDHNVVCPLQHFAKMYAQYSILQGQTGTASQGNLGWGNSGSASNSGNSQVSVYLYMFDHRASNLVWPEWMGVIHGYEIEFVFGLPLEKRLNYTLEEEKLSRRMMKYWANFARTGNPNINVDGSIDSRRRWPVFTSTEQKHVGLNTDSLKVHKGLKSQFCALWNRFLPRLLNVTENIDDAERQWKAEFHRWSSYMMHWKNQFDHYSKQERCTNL

As to `C=CC(=O)N1C/C(=C\c2ccccc2)C(=O)C2(C1)C(c1ccccc1)C(c1ccccc1)NC21C(=O)Nc2ccccc21` (racemic), the IC50 (commonly the concentration that gives 50% inhibition) against Acetylcholinesterase worked out at 4.57 µM; against Cholinesterase, 12.3 µM. Also, the results for the Ratio IC50 in assay [1] and in assay [2] were 0.37 and 2.69, respectively.

With `C=CC(=O)N1C/C(=C\c2ccccc2C)C(=O)C2(C1)C(c1ccccc1C)C(c1ccccc1)NC21C(=O)Nc2ccccc21` (racemic), the IC50 against Acetylcholinesterase was found to be 10.2 µM; against Cholinesterase, 21.8 µM. For the same compound, the values for the Ratio IC50 in assay [1] and in assay [2] were 0.47 and 2.13, respectively.

For `C=CC(=O)N1C/C(=C\c2ccccc2OC)C(=O)C2(C1)C(c1ccccc1OC)C(c1ccccc1)NC21C(=O)Nc2ccccc21` (racemic), the IC50 against Acetylcholinesterase came out at 5.57 µM; against Cholinesterase, 17.5 µM. Besides, the Ratio IC50 came to 0.32 in assay [1] and 3.14 in assay [2].

As to `C=CC(=O)N1C/C(=C\c2ccccc2Cl)C(=O)C2(C1)C(c1ccccc1Cl)C(c1ccccc1)NC21C(=O)Nc2ccccc21` (racemic), the IC50 at Acetylcholinesterase was determined as 1.68 µM; against Cholinesterase, 22.2 µM. Moreover, the Ratio IC50 in assay [1] turned out to be 0.08; in assay [2], 13.2.

As to `C=CC(=O)N1C/C(=C\c2ccccc2F)C(=O)C2(C1)C(c1ccccc1F)C(c1ccccc1)NC21C(=O)Nc2ccccc21` (racemic), the results for the IC50 against Acetylcholinesterase and against Cholinesterase were 2.27 µM and 11.8 µM, respectively. Besides, the Ratio IC50 in assay [1] was determined as 0.19; in assay [2], 5.18.

Take `C=CC(=O)N1C/C(=C\c2cccc([N+](=O)[O-])c2)C(=O)C2(C1)C(c1cccc([N+](=O)[O-])c1)C(c1ccccc1)NC21C(=O)Nc2ccccc21` (racemic): the IC50 on Acetylcholinesterase amounted to 15.1 µM; against Cholinesterase it was 10.6 µM. Also, the Ratio IC50 in assay [1] was found to be 1.43; in assay [2], 0.7.

Regarding `C=CC(=O)N1C/C(=C\c2ccc(Cl)cc2Cl)C(=O)C2(C1)C(c1ccc(Cl)cc1Cl)C(c1ccccc1)NC21C(=O)Nc2ccccc21` (racemic), the IC50 against Acetylcholinesterase was determined as 6.16 µM; against Cholinesterase it was 27.1 µM. Also, the Ratio IC50 in assay [1] came out at 0.23; in assay [2], 4.4.

In the case of `C=CC(=O)N1C/C(=C\c2ccc(C)cc2)C(=O)C2(C1)C(c1ccc(C)cc1)C(c1ccccc1)NC21C(=O)Nc2ccccc21` (racemic), the 50% inhibitory concentration (IC50) is 14.6 µM on Acetylcholinesterase and 5.87 µM at Cholinesterase. Moreover, the Ratio IC50 in assay [1] came out at 2.48; in assay [2], 0.4.

With `C=CC(=O)N1C/C(=C\c2ccc(Cl)cc2)C(=O)C2(C1)C(c1ccc(Cl)cc1)C(c1ccccc1)NC21C(=O)Nc2ccccc21` (racemic), the IC50 on Acetylcholinesterase came out at 4.61 µM; against Cholinesterase, 8.75 µM. Moreover, the figures for the Ratio IC50 in assay [1] and in assay [2] were 0.53 and 1.9, respectively.

As for `C=CC(=O)N1C/C(=C\c2ccc(F)cc2)C(=O)C2(C1)C(c1ccc(F)cc1)C(c1ccccc1)NC21C(=O)Nc2ccccc21` (racemic), the IC50 came to 5.98 µM against Acetylcholinesterase and 2.75 µM on Cholinesterase. Moreover, the Ratio IC50 in assay [1] is 2.17; in assay [2], 0.46.

Consider `C=CC(=O)N1C/C(=C\c2cccc3ccccc23)C(=O)C2(C1)C(c1cccc3ccccc13)C(c1ccccc1)NC21C(=O)Nc2ccccc21` (racemic), for which the figures for the IC50 at Acetylcholinesterase and against Cholinesterase were 2.07 µM and 13.8 µM, respectively. The Ratio IC50 in assay [1] worked out at 0.15; in assay [2] it was 6.65.

As for `O=C(C1CC(c2ccccc2)NC12C(=O)Nc1ccccc12)N1C/C(=C\c2ccccc2)C(=O)C2(C1)C(c1ccccc1)C(c1ccccc1)NC21C(=O)Nc2ccccc21` (racemic), the IC50 was 20.8 µM on Acetylcholinesterase and 26.3 µM on Cholinesterase. For the same compound, the Ratio IC50 in assay [1] came out at 0.79; in assay [2], 1.27.

Regarding `Cc1ccccc1/C=C1\CN(C(=O)C2CC(c3ccccc3)NC23C(=O)Nc2ccccc23)CC2(C1=O)C(c1ccccc1C)C(c1ccccc1)NC21C(=O)Nc2ccccc21` (racemic), the IC50 at Acetylcholinesterase came out at 30.5 µM; at Cholinesterase it was 29.1 µM. The values for the Ratio IC50 in assay [1] and in assay [2] were 1.05 and 0.95, respectively.

On to `COc1ccccc1/C=C1\CN(C(=O)C2CC(c3ccccc3)NC23C(=O)Nc2ccccc23)CC2(C1=O)C(c1ccccc1OC)C(c1ccccc1)NC21C(=O)Nc2ccccc21` (racemic), for which the results for the IC50 against Acetylcholinesterase and against Cholinesterase were 9.15 µM and 32.1 µM, respectively. Further, the Ratio IC50 was determined as 0.28 in assay [1] and 3.51 in assay [2].

For the compound `O=C(C1CC(c2ccccc2)NC12C(=O)Nc1ccccc12)N1C/C(=C\c2ccccc2Cl)C(=O)C2(C1)C(c1ccccc1Cl)C(c1ccccc1)NC21C(=O)Nc2ccccc21` (racemic), the IC50 was found to be 11.3 µM at Acetylcholinesterase and 17.6 µM at Cholinesterase. The Ratio IC50 worked out at 0.64 in assay [1] and 1.56 in assay [2].

Turning to `O=C(C1CC(c2ccccc2)NC12C(=O)Nc1ccccc12)N1C/C(=C\c2ccccc2F)C(=O)C2(C1)C(c1ccccc1F)C(c1ccccc1)NC21C(=O)Nc2ccccc21` (racemic), the IC50 came to 7.45 µM against Acetylcholinesterase and 35.9 µM at Cholinesterase. In addition, the Ratio IC50 in assay [1] worked out at 0.21; in assay [2], 4.81.

Regarding `O=C(C1CC(c2ccccc2)NC12C(=O)Nc1ccccc12)N1C/C(=C\c2cccc([N+](=O)[O-])c2)C(=O)C2(C1)C(c1cccc([N+](=O)[O-])c1)C(c1ccccc1)NC21C(=O)Nc2ccccc21` (racemic), the values for the IC50 on Acetylcholinesterase and against Cholinesterase were 16.8 µM and 17.6 µM, respectively. Further, the Ratio IC50 in assay [1] amounted to 0.95; in assay [2], 1.05.

Regarding `O=C(C1CC(c2ccccc2)NC12C(=O)Nc1ccccc12)N1C/C(=C\c2ccc(Cl)cc2Cl)C(=O)C2(C1)C(c1ccc(Cl)cc1Cl)C(c1ccccc1)NC21C(=O)Nc2ccccc21` (racemic), the IC50 against Acetylcholinesterase was 8.61 µM; at Cholinesterase, 26.3 µM. Besides, the values for the Ratio IC50 in assay [1] and in assay [2] were 0.33 and 3.06, respectively.

In the case of `Cc1ccc(/C=C2\CN(C(=O)C3CC(c4ccccc4)NC34C(=O)Nc3ccccc34)CC3(C2=O)C(c2ccc(C)cc2)C(c2ccccc2)NC32C(=O)Nc3ccccc32)cc1` (racemic), the IC50 on Acetylcholinesterase was 20.2 µM; on Cholinesterase it was 19.8 µM. The Ratio IC50 in assay [1] worked out at 1.02; in assay [2] it was 0.98.

Turning to `O=C(C1CC(c2ccccc2)NC12C(=O)Nc1ccccc12)N1C/C(=C\c2ccc(Cl)cc2)C(=O)C2(C1)C(c1ccc(Cl)cc1)C(c1ccccc1)NC21C(=O)Nc2ccccc21` (racemic), the IC50 against Acetylcholinesterase turned out to be 12.3 µM; against Cholinesterase it was 27.8 µM. Also, the Ratio IC50 was 0.44 in assay [1] and 2.25 in assay [2].

Take `O=C(C1CC(c2ccccc2)NC12C(=O)Nc1ccccc12)N1C/C(=C\c2ccc(F)cc2)C(=O)C2(C1)C(c1ccc(F)cc1)C(c1ccccc1)NC21C(=O)Nc2ccccc21` (racemic): the IC50 came to 21.9 µM at Acetylcholinesterase and 14.4 µM on Cholinesterase. Also, the Ratio IC50 in assay [1] was determined as 1.51; in assay [2], 0.66.

Take `O=C(C1CC(c2ccccc2)NC12C(=O)Nc1ccccc12)N1C/C(=C\c2cccc3ccccc23)C(=O)C2(C1)C(c1cccc3ccccc13)C(c1ccccc1)NC21C(=O)Nc2ccccc21` (racemic): the IC50 is 9.24 µM against Acetylcholinesterase and 19.2 µM against Cholinesterase. The Ratio IC50 stood at 0.48 in assay [1] and 2.08 in assay [2].
